For this assay, the system named is BDF1 mice, colon carcinoma 38 sc, T/C %. Briefly: NCI In Vivo Anticancer Drug Screen. Data for tumor model Colon Carcinoma 38 (subcutaneous) in B6D2F1 (BDF1) mice. Summed up: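 Mice with transplanted tumors are treated with compound or vehicle. Survival or tumor size is then measured in both groups. The ratio of treated to control gives the reported figure.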
Where [1] appears, read: endpoint: median tumor weight (est.), dose: 10.0 mg/kg/injection, schedule: Q07DX002 (ip), vehicle: saline, higher = larger tumour.
Where [2] appears, read: endpoint: median tumor weight (est.), dose: 50.0 mg/kg/injection, schedule: Q07DX002 (ip), vehicle: saline with Tween-80, higher = larger tumour.
The mark [3] stands for this setting: endpoint: median tumor weight (est.), dose: 50.0 mg/kg/injection, schedule: Q07DX002 (ip), vehicle: saline, higher = larger tumour.
Where [4] appears, read: endpoint: median tumor weight (est.), dose: 100.0 mg/kg/injection, schedule: Q07DX002 (ip), vehicle: saline with Tween-80, higher = larger tumour.
Setting [5] is: endpoint: median tumor weight (est.), dose: 100.0 mg/kg/injection, schedule: Q07DX002 (ip), vehicle: saline, higher = larger tumour.
Where [6] appears, read: endpoint: median tumor weight (est.), dose: 200.0 mg/kg/injection, schedule: Q07DX002 (ip), vehicle: saline with Tween-80, higher = larger tumour.
[7] abbreviates: endpoint: median tumor weight (est.), dose: 200.0 mg/kg/injection, schedule: Q07DX002 (ip), vehicle: saline, higher = larger tumour.
The mark [8] stands for this setting: endpoint: median tumor weight (est.), dose: 12.5 mg/kg/injection, schedule: Q07DX002 (ip), vehicle: saline with Tween-80, higher = larger tumour.
Setting [9] is: endpoint: median tumor weight (est.), dose: 25.0 mg/kg/injection, schedule: Q07DX002 (ip), vehicle: saline with Tween-80, higher = larger tumour.

“And” between values parts separate entries of the source, which are not always exact repeats. Identical values can stand only once. Results filed as inconclusive are left out.

For `O=c1[nH]c(=O)n(C2CC(O)C(CO)O2)cc1C(F)(F)F` (stereo unspecified), the T/C is, setting by setting: under setting [1], 83 % of control; (endpoint: median tumor weight (est.), dose: 20.0 mg/kg/injection, schedule: Q07DX002 (ip), vehicle: saline, higher = larger tumour) 77 % of control; under setting [2], 100 % of control; under setting [3], 114 % of control; under setting [4], 117 % of control; under setting [5], 84 % of control. For the same compound, the T/C reads like this: (endpoint: median tumor weight (est.), dose: 160.0 mg/kg/injection, schedule: Q07DX002 (ip), vehicle: saline, higher = larger tumour) 118 % of control; under setting [6], 101 % of control; under setting [7], 95 % of control; (endpoint: median tumor weight (est.), dose: 320.0 mg/kg/injection, schedule: Q07DX002 (ip), vehicle: saline, higher = larger tumour) 156 % of control; (endpoint: median tumor weight (est.), dose: 400.0 mg/kg/injection, schedule: Q07DX002 (ip), vehicle: saline with Tween-80, higher = larger tumour) 94 % of control; (endpoint: median tumor weight (est.), dose: 800.0 mg/kg/injection, schedule: Q07DX002 (ip), vehicle: saline with Tween-80, higher = larger tumour) 105 % of control. In addition, the T/C is, setting by setting: (endpoint: median tumor weight (est.), dose: 800.0 mg/kg/injection, schedule: Q07DX002 (ip), vehicle: saline, higher = larger tumour) 90 % of control; (endpoint: median tumor weight (est.), dose: 1600.0 mg/kg/injection, schedule: Q07DX002 (ip), vehicle: saline with Tween-80, higher = larger tumour) 108 % of control; (endpoint: median tumor weight (est.), dose: 1600.0 mg/kg/injection, schedule: Q07DX002 (ip), vehicle: saline, higher = larger tumour) 41 % of control.

For the compound `CC12CCC3C(CCC4CC(OC(=O)Cc5ccc(N(CCCl)CCCl)cc5)CCC43C)C1CCC(=O)N2` (stereo unspecified), the T/C was 121 % of control (endpoint: median tumor weight (est.), dose: 1.5 mg/kg/injection, schedule: Q07DX002 (ip), vehicle: saline with Tween-80, higher = larger tumour); 77 % of control and 91 % of control (endpoint: median tumor weight (est.), dose: 3.0 mg/kg/injection, schedule: Q07DX002 (ip), vehicle: saline with Tween-80, higher = larger tumour); 47 % of control and 48 % of control (endpoint: median tumor weight (est.), dose: 6.0 mg/kg/injection, schedule: Q07DX002 (ip), vehicle: saline with Tween-80, higher = larger tumour); 27 % of control and 33 % of control (endpoint: median tumor weight (est.), dose: 24.0 mg/kg/injection, schedule: Q07DX002 (ip), vehicle: saline with Tween-80, higher = larger tumour).

On to `Nc1cc(Cl)c2[nH]cnc2n1`, for which the T/C reads like this: (endpoint: median tumor weight (est.), dose: 12.5 mg/kg/injection, schedule: Q07DX002 (ip), vehicle: water, higher = larger tumour) 86 % of control; (endpoint: median tumor weight (est.), dose: 25.0 mg/kg/injection, schedule: Q07DX002 (ip), vehicle: water, higher = larger tumour) 119 % of control; (endpoint: median tumor weight (est.), dose: 50.0 mg/kg/injection, schedule: Q07DX002 (ip), vehicle: distilled water + Tween-80, higher = larger tumour) 99 % of control; (endpoint: median tumor weight (est.), dose: 50.0 mg/kg/injection, schedule: Q07DX002 (ip), vehicle: water, higher = larger tumour) 82 % of control; (endpoint: median tumor weight (est.), dose: 100.0 mg/kg/injection, schedule: Q07DX002 (ip), vehicle: distilled water + Tween-80, higher = larger tumour) 76 % of control; (endpoint: median tumor weight (est.), dose: 100.0 mg/kg/injection, schedule: Q07DX002 (ip), vehicle: water, higher = larger tumour) 101 % of control. Besides, the T/C (endpoint: median tumor weight (est.), dose: 200.0 mg/kg/injection, schedule: Q07DX002 (ip), vehicle: distilled water + Tween-80, higher = larger tumour) was 108 % of control; the T/C (endpoint: median tumor weight (est.), dose: 200.0 mg/kg/injection, schedule: Q07DX002 (ip), vehicle: water, higher = larger tumour) is 81 % of control; the T/C (endpoint: median tumor weight (est.), dose: 400.0 mg/kg/injection, schedule: Q07DX002 (ip), vehicle: water, higher = larger tumour) is 81 % of control.

As to `CCCCNC(C)[C@]1(O)Cc2c(O)c3c(c(O)c2[C@@H](OC2CC(N)C(O)C(C)O2)C1)C(=O)c1c(OC)cccc1C3=O` (stereo partly specified), the T/C (endpoint: median survival time, dose: 16.0 mg/kg/injection, schedule: Q07DX002 (sc), vehicle: saline, higher = longer survival) was 113 % of control; the T/C (endpoint: median survival time, dose: 26.0 mg/kg/injection, schedule: Q07DX002 (sc), vehicle: saline, higher = longer survival) is 151 % of control; the T/C (endpoint: median tumor weight (est.), dose: 3.38 mg/kg/injection, schedule: Q07DX002 (ip), vehicle: saline, higher = larger tumour) is 89 % of control; the T/C (endpoint: median tumor weight (est.), dose: 6.75 mg/kg/injection, schedule: Q07DX002 (ip), vehicle: saline, higher = larger tumour) was 88 % of control; the T/C (endpoint: median tumor weight (est.), dose: 13.5 mg/kg/injection, schedule: Q07DX002 (ip), vehicle: saline, higher = larger tumour) was 81 % of control.

On to `O.O.[NH-]C1CCCCC1[NH-].[Pt+2]` (stereo unspecified), for which the T/C by setting is: (endpoint: median tumor weight (est.), dose: 1.25 mg/kg/injection, schedule: Q07DX002 (ip), vehicle: dextrose, higher = larger tumour) 98 % of control; (endpoint: median tumor weight (est.), dose: 10.0 mg/kg/injection, schedule: Q07DX002 (ip), vehicle: dextrose, higher = larger tumour) 61 % of control and 62 % of control; (endpoint: median tumor weight (est.), dose: 20.0 mg/kg/injection, schedule: Q07DX002 (ip), vehicle: dextrose, higher = larger tumour) 37 % of control and 43 % of control; (endpoint: median tumor weight (est.), dose: 40.0 mg/kg/injection, schedule: Q07DX002 (ip), vehicle: dextrose, higher = larger tumour) 20 % of control.

As for `COc1cc2cc(c1Cl)N(C)C(=O)CC(OC(=O)C(C)C)C1(C)OC1C(C)C1CC(O)(NC(=O)O1)C(OC)/C=C/C=C(C)C2` (stereo unspecified), the T/C by setting is: (endpoint: median tumor weight (est.), dose: 6.2 micrograms/kg/injection, schedule: Q07DX003 (ip), vehicle: saline + alcohol, higher = larger tumour) 109 % of control; (endpoint: median tumor weight (est.), dose: 12.5 micrograms/kg/injection, schedule: Q07DX003 (ip), vehicle: saline + alcohol, higher = larger tumour) 90 % of control; (endpoint: median tumor weight (est.), dose: 25.0 micrograms/kg/injection, schedule: Q07DX003 (ip), vehicle: saline + alcohol, higher = larger tumour) 88 % of control; (endpoint: median tumor weight (est.), dose: 50.0 micrograms/kg/injection, schedule: Q07DX003 (ip), vehicle: saline + alcohol, higher = larger tumour) 79 % of control; (endpoint: median tumor weight (est.), dose: 100.0 micrograms/kg/injection, schedule: Q07DX003 (ip), vehicle: saline + alcohol, higher = larger tumour) 93 % of control.

Regarding `Nc1nc(N)c2c(ccc3c2ccn3Cc2cccc([N+](=O)[O-])c2)n1`, the T/C is, setting by setting: (endpoint: median tumor weight (est.), dose: 3.12 mg/kg/injection, schedule: Q07DX002 (ip), vehicle: saline with Tween-80, higher = larger tumour) 85 % of control; (endpoint: median tumor weight (est.), dose: 6.25 mg/kg/injection, schedule: Q07DX002 (ip), vehicle: saline with Tween-80, higher = larger tumour) 80 % of control; under setting [8], 72 % of control; under setting [9], 14 % of control.

As for `Cc1ccc(S(=O)(=O)NC(=S)S)cc1`, the T/C reads like this: under setting [8], 108 % of control; under setting [9], 54 % of control; under setting [2], 116 % of control; under setting [4], 100 % of control; under setting [6], 60 % of control.

`OCCN1CCN(CC/C=C2/c3ccccc3Sc3ccc(Cl)cc32)CC1`: the T/C was 83 % of control (endpoint: median tumor weight (est.), dose: 3.12 mg/kg/injection, schedule: Q07DX002 (ip), vehicle: saline, higher = larger tumour); 39 % of control (endpoint: median tumor weight (est.), dose: 6.25 mg/kg/injection, schedule: Q07DX002 (ip), vehicle: saline, higher = larger tumour); 112 % of control (endpoint: median tumor weight (est.), dose: 12.5 mg/kg/injection, schedule: Q07DX002 (ip), vehicle: saline, higher = larger tumour); 67 % of control (endpoint: median tumor weight (est.), dose: 25.0 mg/kg/injection, schedule: Q07DX002 (ip), vehicle: saline, higher = larger tumour); 110 % of control under setting [3]; 99 % of control under setting [5].

Take `OCC1OC(n2cnc3c2NC=NC[C@H]3O)CC1O` (stereo partly specified): the T/C (endpoint: median tumor weight (est.), dose: 0.63 mg/kg/injection, schedule: Q07DX002 (ip), vehicle: saline, higher = larger tumour) was 70 % of control; the T/C (endpoint: median tumor weight (est.), dose: 1.25 mg/kg/injection, schedule: Q07DX002 (ip), vehicle: saline, higher = larger tumour) is 83 % of control; the T/C (endpoint: median tumor weight (est.), dose: 2.0 mg/kg/injection, schedule: Q07DX002 (ip), vehicle: saline, higher = larger tumour) is 68 % of control; the T/C (endpoint: median tumor weight (est.), dose: 2.5 mg/kg/injection, schedule: Q07DX002 (ip), vehicle: saline, higher = larger tumour) was 43 % of control; the T/C (endpoint: median tumor weight (est.), dose: 5.0 mg/kg/injection, schedule: Q07DX002 (ip), vehicle: saline, higher = larger tumour) was 90 % of control; the T/C (endpoint: median tumor weight (est.), dose: 8.0 mg/kg/injection, schedule: Q07DX002 (ip), vehicle: saline, higher = larger tumour) is 67 % of control. For the same compound, the T/C under setting [1] was 45 % of control and the T/C (endpoint: median tumor weight (est.), dose: 16.0 mg/kg/injection, schedule: Q07DX002 (ip), vehicle: saline, higher = larger tumour) is 74 % of control.

On to `O=C1NC(=O)/C(=C/C=C/c2ccccc2)S1`, for which the T/C reads like this: (endpoint: median tumor weight (est.), dose: 1.81 mg/kg/injection, schedule: Q07DX002 (ip), vehicle: saline with Tween-80, higher = larger tumour) 70 % of control; (endpoint: median tumor weight (est.), dose: 3.62 mg/kg/injection, schedule: Q07DX002 (ip), vehicle: saline with Tween-80, higher = larger tumour) 198 % of control; (endpoint: median tumor weight (est.), dose: 7.25 mg/kg/injection, schedule: Q07DX002 (ip), vehicle: saline with Tween-80, higher = larger tumour) 84 % of control; under setting [8], 117 % of control and 100 % of control; (endpoint: median tumor weight (est.), dose: 14.5 mg/kg/injection, schedule: Q07DX002 (ip), vehicle: saline with Tween-80, higher = larger tumour) 85 % of control; under setting [9], 65 % of control and 80 % of control. For the same compound, the T/C (endpoint: median tumor weight (est.), dose: 29.0 mg/kg/injection, schedule: Q07DX002 (ip), vehicle: saline with Tween-80, higher = larger tumour) was 69 % of control; the T/C (endpoint: median tumor weight (est.), dose: 58.0 mg/kg/injection, schedule: Q07DX002 (ip), vehicle: saline with Tween-80, higher = larger tumour) was 78 % of control; the T/C under setting [4] was 175 % of control.

In the case of `CC(C)NCC(O)COc1ccc(O)c(O)c1` (stereo unspecified), the T/C was 121 % of control under setting [5] and 93 % of control under setting [7].

The values are drawn from PubChem BioAssay AID212 (DTP/NCI, 2004).
